Measurements reported in patent US20220071971A1, “MACROCYCLIC COMPOUNDS AND THEIR USE IN THE TREATMENT OF DISEASE” (NOVARTIS AG, priority 2018, published 2022).

Target: T1, delF508-CFTR (Homo sapiens, UniProt P13569, DEL508-508)
T1 construct: expressed in transfected cells
Assay: Measurement of delF508-CFTR-HRP surface expression in CFBE41o- cells
Assay type: cell-based
Conditions: for EC50: HRP-tagged delF508-CFTR surface expression, CFBE41o- cells, 24 h with compound, 10-point curve, highest concentration 10 μM; for Emax: CFBE41o-, read-out: DelF508-CFTR-HRP Amax %
Procedure, shortened: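 CFBE41o- cells stably expressing delF508-CFTR with HRP in the fourth extracellular loop, induced 48 h with 500 ng/mL doxycycline, then exposed to compound (10-point, 3-fold, top 10 μM, ≤0.5% DMSO) for 24 h at 37° C. Surface HRP read by luminescence with cell-impermeant substrate; EC50 by logistic fit, triplicates, efficacy relative to reference corrector.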

[1] = efficacy relative to reference compound 3-(6-(1-(2,2-difluorobenzo[d][1,3]dioxol-5-yl)cyclopropane-1-carboxamido)-3-methylpyridin-2-yl)benzoic acid

T1 sequence (P13569 with tags, fused parts or gaps DEL508-508): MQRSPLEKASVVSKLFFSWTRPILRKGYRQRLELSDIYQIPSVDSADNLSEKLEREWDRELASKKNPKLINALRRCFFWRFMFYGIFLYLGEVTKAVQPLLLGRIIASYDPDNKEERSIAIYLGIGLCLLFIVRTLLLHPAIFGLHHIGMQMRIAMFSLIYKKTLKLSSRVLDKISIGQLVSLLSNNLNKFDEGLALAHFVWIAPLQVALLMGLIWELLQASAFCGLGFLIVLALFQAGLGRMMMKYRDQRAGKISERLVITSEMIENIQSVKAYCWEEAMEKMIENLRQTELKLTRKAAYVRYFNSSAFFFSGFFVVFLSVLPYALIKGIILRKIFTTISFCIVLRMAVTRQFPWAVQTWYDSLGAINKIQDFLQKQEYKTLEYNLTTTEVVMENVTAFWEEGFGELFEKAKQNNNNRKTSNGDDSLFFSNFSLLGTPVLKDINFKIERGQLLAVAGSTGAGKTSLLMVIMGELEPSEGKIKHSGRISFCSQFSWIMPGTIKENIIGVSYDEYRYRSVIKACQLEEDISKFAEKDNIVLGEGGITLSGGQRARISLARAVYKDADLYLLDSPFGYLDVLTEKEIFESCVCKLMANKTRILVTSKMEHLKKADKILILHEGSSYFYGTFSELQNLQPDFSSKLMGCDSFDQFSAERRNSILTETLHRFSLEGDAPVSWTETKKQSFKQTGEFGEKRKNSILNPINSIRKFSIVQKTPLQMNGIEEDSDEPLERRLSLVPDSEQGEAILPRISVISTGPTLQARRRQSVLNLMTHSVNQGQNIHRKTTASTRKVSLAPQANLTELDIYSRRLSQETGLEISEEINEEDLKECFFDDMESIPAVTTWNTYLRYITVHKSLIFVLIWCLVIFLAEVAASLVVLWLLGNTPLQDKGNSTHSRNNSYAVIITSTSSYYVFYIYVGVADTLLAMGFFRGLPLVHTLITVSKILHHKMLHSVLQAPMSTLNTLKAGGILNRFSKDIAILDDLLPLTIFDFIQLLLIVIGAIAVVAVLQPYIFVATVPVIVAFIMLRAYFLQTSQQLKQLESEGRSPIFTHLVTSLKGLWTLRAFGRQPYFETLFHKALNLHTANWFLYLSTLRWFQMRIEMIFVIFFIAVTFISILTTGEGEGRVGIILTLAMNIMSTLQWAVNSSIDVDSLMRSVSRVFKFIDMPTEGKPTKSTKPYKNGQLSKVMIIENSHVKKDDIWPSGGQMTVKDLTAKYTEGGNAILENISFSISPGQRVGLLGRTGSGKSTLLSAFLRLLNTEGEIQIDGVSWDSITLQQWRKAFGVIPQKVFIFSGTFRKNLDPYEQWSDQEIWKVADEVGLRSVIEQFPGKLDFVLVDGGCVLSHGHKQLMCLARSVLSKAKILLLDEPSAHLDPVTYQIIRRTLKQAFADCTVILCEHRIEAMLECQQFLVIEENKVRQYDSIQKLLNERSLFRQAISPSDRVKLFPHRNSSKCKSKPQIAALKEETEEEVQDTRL

Row | SMILES | EC50 [nM] | Emax [1] [%] | DelF508-CFTR-HRP Amax % [1] [%]
1 | O=C(O)CCN1CCCCCCCCCc2ccccc2-c2nc(ccc2C(F)(F)F)NS(=O)(=O)c2cccc1n2 [Compound 75, 3-(4,4-dioxido-2^3-(trifluoromethyl)-4-thia-3,6-diaza-2,5(2,6)-dipyridina-1(1,2)-benzenacyclopentadecaphane-6-yl)propanoic acid] | 417 | – | –
2 | O=C(O)CCCN1CCCCCCc2ccccc2-c2nc(ccc2C(F)(F)F)NS(=O)(=O)c2cccc1n2 [Compound 76, 4-(4,4-dioxido-2^3-(trifluoromethyl)-4-thia-3,6-diaza-2,5(2,6)-dipyridina-1(1,2)-benzenacyclododecaphane-6-yl)butanoic acid] | 421 | – | –
3 | O=C(O)CCCCN1CCCCCc2ccccc2-c2nc(ccc2C(F)(F)F)NS(=O)(=O)c2cccc1n2 [Compound 77, 5-(4,4-dioxido-2^3-(trifluoromethyl)-4-thia-3,6-diaza-2,5(2,6)-dipyridina-1(1,2)-benzenacycloundecaphane-6-yl)pentanoic acid] | 492 | – | –
4 | O=C(O)CCCCN1CCCCCCc2ccccc2-c2nc(ccc2C(F)(F)F)NS(=O)(=O)c2cccc1n2 [Compound 78, 5-(4,4-dioxido-2^3-(trifluoromethyl)-4-thia-3,6-diaza-2,5(2,6)-dipyridina-1(1,2)-benzenacyclododecaphane-6-yl)pentanoic acid] | 293 | – | –
5 | O=C(O)CCCN1CCCCCc2ccccc2-c2nc(ccc2Cl)NS(=O)(=O)c2cccc1n2 [Compound 79, 4-(2^3-chloro-4,4-dioxido-4-thia-3,6-diaza-2,5(2,6)-dipyridina-1(1,2)-benzenacycloundecaphane-6-yl)butanoic acid] | 1600 | – | –
6 | O=C(O)CCCCN1CCCCc2ccccc2-c2nc(ccc2C(F)(F)F)NS(=O)(=O)c2cccc1n2 [Compound 80, 5-(4,4-dioxido-2^3-(trifluoromethyl)-4-thia-3,6-diaza-2,5(2,6)-dipyridina-1(1,2)-benzenacyclodecaphane-6-yl)pentanoic acid] | 1400 | – | –
7 | O=C(O)CCN1CCCCOc2ccc(F)cc2-c2nc(ccc2C(F)(F)F)NS(=O)(=O)c2cccc1n2 [Compound 81, 3-(1^5-fluoro-4,4-dioxido-2^3-(trifluoromethyl)-11-oxa-4-thia-3,6-diaza-2,5(2,6)-dipyridina-1(1,2)-benzenacycloundecaphane-6-yl)propanoic acid] | 2330 | 527 | –
8 | O=C(O)CCCCCN1CCCCCc2ccccc2-c2nc(ccc2Cl)NS(=O)(=O)c2cccc1n2 [Compound 82, 6-(2^3-chloro-4,4-dioxido-4-thia-3,6-diaza-2,5(2,6)-dipyridina-1(1,2)-benzenacycloundecaphane-6-yl)hexanoic acid] | 844 | 652 | –
9 | COc1ccc2nc1-c1ccccc1CCCCCN(CCCC(=O)O)c1cccc(n1)S(=O)(=O)N2 [Compound 83, 4-(2^3-methoxy-4,4-dioxido-4-thia-3,6-diaza-2,5(2,6)-dipyridina-1(1,2)-benzenacycloundecaphane-6-yl)butanoic acid] | 2430 | – | 163.8
10 | O=C(O)CCN1CCCCCCc2ccccc2-c2nc(ccc2C(F)(F)F)NS(=O)(=O)c2cccc1n2 [Compound 84, 3-(4,4-dioxido-2^3-(trifluoromethyl)-4-thia-3,6-diaza-2,5(2,6)-dipyridina-1(1,2)-benzenacyclododecaphane-6-yl)propanoic acid] | 1040 | – | –
11 | O=C(O)CCN1CCCCCCc2ccc(F)cc2-c2nc(ccc2C(F)(F)F)NS(=O)(=O)c2cccc1n2 [Compound 85, 3-(1^5-fluoro-4,4-dioxido-2^3-(trifluoromethyl)-4-thia-3,6-diaza-2,5(2,6)-dipyridina-1(1,2)-benzenacyclododecaphane-6-yl)propanoic acid] | 714 | – | –
12 | O=C(O)CCCN1CCCCCc2ccc(F)cc2-c2nc(ccc2C(F)(F)F)NS(=O)(=O)c2cccc1n2 [Compound 86, 4-(1^5-fluoro-4,4-dioxido-2^3-(trifluoromethyl)-4-thia-3,6-diaza-2,5(2,6)-dipyridina-1(1,2)-benzenacycloundecaphane-6-yl)butanoic acid] | 293 | – | –
13 | O=C(O)CCN1CCCCc2ccccc2-c2nc(ccc2C(F)(F)F)NS(=O)(=O)c2cccc1n2 [Compound 87, 3-(4,4-dioxido-2^3-(trifluoromethyl)-4-thia-3,6-diaza-2,5(2,6)-dipyridina-1(1,2)-benzenacyclodecaphane-6-yl)propanoic acid] | 1420 | 306 | –
14 | O=C(O)CCCN1CCOCCCc2ccccc2-c2nc(ccc2C(F)(F)F)NS(=O)(=O)c2cccc1n2 [Compound 88, 4-(4,4-dioxido-2^3-(trifluoromethyl)-9-oxa-4-thia-3,6-diaza-2,5(2,6)-dipyridina-1(1,2)-benzenacyclododecaphane-6-yl)butanoic acid] | 2070 | – | –
15 | O=C(O)CCCN1CCCCc2ccccc2-c2nc(ccc2Cl)NS(=O)(=O)c2cccc1n2 [Compound 91, 4-(2^3-chloro-4,4-dioxido-4-thia-3,6-diaza-2,5(2,6)-dipyridina-1(1,2)-benzenacyclodecaphane-6-yl)butanoic acid] | 2760 | 721 | –
16 | O=C(O)CCN1CCCCCc2ccccc2-c2cccc(n2)NS(=O)(=O)c2cccc1n2 [Compound 93, 3-(4,4-dioxido-4-thia-3,6-diaza-2,5(2,6)-dipyridina-1(1,2)-benzenacycloundecaphane-6-yl)propanoic acid] | 2650 | 179 | –
17 | O=C(O)C1(CN2CCCCCc3ccccc3-c3nc(ccc3C(F)(F)F)NS(=O)(=O)c3cccc2n3)CC1 [Compound 94, 1-((4,4-dioxido-2^3-(trifluoromethyl)-4-thia-3,6-diaza-2,5(2,6)-dipyridina-1(1,2)-benzenacycloundecaphane-6-yl)methyl)cyclopropane-1-carboxylic acid] | 566 | 737 | –
18 | O=C(O)C1(CN2CCOCCCc3ccccc3-c3nc(ccc3C(F)(F)F)NS(=O)(=O)c3cccc2n3)CC1 [Compound 95, 1-((4,4-dioxido-2^3-(trifluoromethyl)-9-oxa-4-thia-3,6-diaza-2,5(2,6)-dipyridina-1(1,2)-benzenacyclododecaphane-6-yl)methyl)cyclopropane-1-carboxylic acid] | 1320 | – | –
19 | CC(C)(CN1CCCCCc2ccc(F)cc2-c2nc(ccc2C(F)(F)F)NS(=O)(=O)c2cccc1n2)C(=O)O [Compound 96, 3-(1^5-fluoro-4,4-dioxido-2^3-(trifluoromethyl)-4-thia-3,6-diaza-2,5(2,6)-dipyridina-1(1,2)-benzenacycloundecaphane-6-yl)-2,2-dimethylpropanoic acid] | 431 | 792 | –
20 | O=C(O)CCN1CCCCCc2ccc(F)cc2-c2nc(ccc2C(F)(F)F)NS(=O)(=O)c2cccc1n2 [Compound 97, 3-(1^5-fluoro-4,4-dioxido-2^3-(trifluoromethyl)-4-thia-3,6-diaza-2,5(2,6)-dipyridina-1(1,2)-benzenacycloundecaphane-6-yl)propanoic acid] | 747 | 728 | –
21 | O=C(O)CCCCN1CCCCCCCc2ccccc2-c2nc(ccc2C(F)(F)F)NS(=O)(=O)c2cccc1n2 [Compound 101, 5-(4,4-dioxido-2^3-(trifluoromethyl)-4-thia-3,6-diaza-2,5(2,6)-dipyridina-1(1,2)-benzenacyclotridecaphane-6-yl)pentanoic acid] | 84 | – | –
22 | O=C(O)CCCN1CCCOCc2ccccc2-c2nc(ccc2C(F)(F)F)NS(=O)(=O)c2cccc1n2 [Compound 102, 4-(4,4-dioxido-2^3-(trifluoromethyl)-10-oxa-4-thia-3,6-diaza-2,5(2,6)-dipyridina-1(1,2)-benzenacycloundecaphane-6-yl)butanoic acid] | 2300 | – | –
23 | O=S1(=O)Nc2ccc(C(F)(F)F)c(n2)-c2cccnc2OCCCCCOc2cccc1n2 [Compound 103, 2^3-(trifluoromethyl)-6,12-dioxa-4-thia-3-aza-1(3,2),2,5(2,6)-tripyridinacyclododecaphane 4,4-dioxide] | 1380 | 197 | –
24 | O=S1(=O)Nc2ccc(C(F)(F)F)c(n2)-c2cccnc2O[C@H]2CCC[C@H](CCC2)Oc2cccc1n2 [Compound 104, (4^1s,4^5s)-1^3-(trifluoromethyl)-3,5-dioxa-7-thia-8-aza-1,6(2,6),2(3,2)-tripyridina-4(1,5)-cyclooctanacyclooctaphane 7,7-dioxide] | 226 | 205 | –
25 | O=S1(=O)Nc2ccc(Cl)c(n2)-c2cccnc2NCCCCCNc2cccc1n2 [Compound 105, 2^3-chloro-4-thia-3,6,12-triaza-1(3,2),2,5(2,6)-tripyridinacyclododecaphane 4,4-dioxide] | 2220 | 178 | –
26 | Cc1ccnc2c1-c1nc(ccc1Cl)NS(=O)(=O)c1cccc(n1)NCCCCCN2 [Compound 106, 2^3-chloro-1^4-methyl-4-thia-3,6,12-triaza-1(3,2),2,5(2,6)-tripyridinacyclododecaphane 4,4-dioxide] | 1410 | 287 | –
27 | O=S1(=O)Nc2ccc(Cl)c(n2)-c2cccnc2OCCCCCNc2cccc1n2 [Compound 107, 2^3-chloro-12-oxa-4-thia-3,6-diaza-1(3,2),2,5(2,6)-tripyridinacyclododecaphane 4,4-dioxide] | 1260 | 169 | –
28 | O=S1(=O)Nc2ccc(C(F)(F)F)c(n2)-c2cccnc2OCCCCCNc2cccc1n2 [Compound 108, 2^3-(trifluoromethyl)-1^2-oxa-4-thia-3,6-diaza-1(3,2),2,5(2,6)-tripyridinacyclododecaphane 4,4-dioxide] | 1270 | 443 | –
